Measured values from a melting point compilation (Tetko et al.; mined from patent text by program, amines drawn as free bases though some values may be those of a salt).

Work on `CCCCCS(=O)(=O)NC(=O)/C=C/c1cc(OCC2(C)COC2)nn1Cc1ccc(C(F)(F)F)cc1Cl` yielded a melting point of 144 to 147 °C.
Compound `CCCN(CCC)C1Cc2cccc3ccc(=O)n(c23)C1` (stereo not drawn) has a melting point of 82 to 84 °C.
`O=C(O)CN1C(=S)c2cccc3c(Br)ccc1c23` gave a melting point of 253 °C.
In the case of `CC12C=CC(=O)C=C1C(SC#N)C(O)C1C2CCC2(C)C(=O)CCC12` (stereo not drawn), the melting point is reported as 206 to 208 °C.
With `CCCc1nn(C)c2c(=O)[nH]c(-c3ccccc3OC)nc12` the melting point was 140 to 141 °C.
Work on `O[C@H]1c2cc(OCc3ccc4ccccc4c3)ccc2OC[C@H]1Oc1cccnc1` (relative stereo) yielded a melting point of 156 to 157 °C.
`Nc1nn(-c2c(Cl)cc(C(F)(F)F)cc2Cl)cc1C1CC1(Br)Br` (stereo not drawn) gave a melting point of 125 to 126 °C.
`Nc1ncc(-c2ccc(F)c3ccccc23)o1` showed a melting point of 171 to 174 °C.
`CCOC(=O)c1cc(OCC)c(OCC)cc1N` gave a melting point of 69 to 71 °C.
Compound `CCOC(=O)c1cnc2n(c1=O)C(C)CC=C2Nc1ccccc1` (stereo not drawn) has a melting point of 119 to 120 °C.
`[N-]=[N+]=Nc1c([N+](=O)[O-])cnn1-c1c(Cl)cc(C(F)(F)F)c(Cl)c1Cl` showed a melting point of 84 to 88 °C.
Compound `COc1ccc(-n2ncc(C(N)=O)c2N)cc1` has a melting point of 213 to 215 °C.
For `O=P12CN3CN(C1)S(=O)(=O)N(C3)C2`, the melting point was 245 to 246 °C.
With `CC(C)=NOCOc1cc(-n2c(=O)cc(C(F)(F)F)n(C)c2=O)c(F)cc1Br` the melting point was 121 °C.
Compound `CC(=O)NCc1cccc(Nc2nccc(-c3sc(-c4cccs4)nc3C)n2)c1` has a melting point of 223 to 225 °C.
`O=C1C(=O)c2ccccc2C2=C1SCC1(CCN(C(=O)c3cccc(C(F)(F)F)c3)CC1)O2` gave a melting point of 165 to 166 °C.
`O=C(Nc1ccc(F)c(C(F)(F)F)c1)c1csc2cc(Oc3cc(CO)ncn3)ccc12` gave a melting point of 138 to 140 °C.
Work on `CC(Oc1ncn(-c2ccccc2)n1)C(=O)OCc1ccccc1` (stereo not drawn) yielded a melting point of 78 to 80 °C.
Compound `Cc1c(NC(=O)CC(C)(C)C)c(C)c2c(c1-c1cccc(F)c1)OCC2c1ccc(C(C)C)cc1` (stereo not drawn) has a melting point of 182 to 183 °C.
With `COc1cc(C=C(C#N)C(=O)NCCC(C)NC(=O)C(C#N)=Cc2cc(O)c(O)c(OC)c2)cc(O)c1O` (stereo not drawn) the melting point was greater than 300 °C.
For `CC(=O)c1ccc(NC(=O)NCCN(CCNC(=O)Nc2ccc(C(C)=O)cc2)CCNC(=O)Nc2ccc(C(C)=O)cc2)cc1`, the melting point was 189 to 190 °C.
With `C=CC(=N)NS(N)(=O)=O` the melting point was 72 to 75 °C.
In the case of `COC1(OCCc2nc(C(C)C)c(Sc3cc(Cl)cc(Cl)c3)n2C)c2ccccc2-c2ccccc21`, the melting point is reported as 130 to 131 °C.
Compound `O=C(Nc1ccc(OC(F)(F)F)cc1)NC1CCN(C(=O)CN2CCNCC2)CC1` has a melting point of 111 to 122 °C.
For `O=CC1C(=O)NC(=O)N1CCCCCCC(=O)O` (stereo not drawn), the melting point was 224 to 225 °C.
Compound `O=C(O)c1ccc(OCCCN(CCO)c2ccc(Cl)cc2)cc1` has a melting point of 120 to 122 °C.
`Cc1cc(F)ccc1-c1c(O)c(C)c(-c2ccccn2)oc1=O` showed a melting point of 123 to 125 °C.
Compound `Cn1nc(-c2c(F)cccc2Cl)nc1-c1cc(-c2ccc(OC(F)(F)F)cc2)sc1Br` has a melting point of 135 to 136 °C.
Compound `CCc1c(-c2ccc(OC)cc2)c2c3c(c4cc(OC)cc1n42)C(=O)OC3=O` has a melting point of 249 to 251 °C.
`COC(=O)C1=C(C)NC(C)=C(C(=O)OCCOc2ccc(CCOC(C)=O)cc2)C1c1cccc([N+](=O)[O-])c1` (stereo not drawn) gave a melting point of 110 °C.
`c1ccc(Sc2ccc3[nH]ccc3c2)cc1` showed a melting point of 97 to 99 °C.
Compound `COc1ccc2c(c1)N(c1ccc(F)cc1)C(=O)C2(C)NC(=O)OCc1ccccc1` (stereo not drawn) has a melting point of 167 to 169 °C.
`Cn1c(C(F)(F)F)cc(=O)n(-c2cc(OCC(F)(F)F)c(Cl)cc2F)c1=O` showed a melting point of 136 to 138 °C.
Compound `COc1cc(C(C)NC(=O)OCC2c3ccccc3-c3ccccc32)c([N+](=O)[O-])cc1OCCCC(=O)O` (stereo not drawn) has a melting point of 200 to 201 °C.
`CCCC(=O)c1ccc(OCCCCC(=O)O)c(Cl)c1Cl` gave a melting point of 102 to 103 °C.
Work on `CNC(=O)c1cc2ccc(OC)cc2n1CCNC(C)=O` yielded a melting point of 177 to 178 °C.
For `Oc1ccc(O[C@@H]2CCNC[C@H]2O)cc1` (relative stereo), the melting point was 176 to 178 °C.
Compound `O=[N+]([O-])c1c(Cl)cc(Cl)cc1-c1n[nH]cc1Cl` has a melting point of 173 °C.
